In ChEMBL document CHEMBL5576080, “Oropouche virus - The "Newest" invisible public enemy?” (Bioorg Med Chem, 2024):
Active and inactive are the calls of the source. No cut-off for these calls is given here.

Tests used:
[1] = Cytotoxicity against African green monkey Vero cells assessed as reduction in cell viability measured after 72 hrs by MTT assay; assay type: toxicity, cell-based; settings: chlorocebus sabaeus
[2] = Selectivity index, ratio of CC50 for African green monkey Vero cells to EC50 for Oropouche virus infected in Vero cells; assay type: toxicity, cell-based; settings: read-out: Ratio CC50/EC50
[3] = system: Oropouche virus; test: (§1) Inhibition of Oropouche virus N-terminal His-tagged fusion endonuclease expressed in Escherichia coli Rosetta (DE3) cells using FAM-TCT CTA GCA GTG GCG CC-TAM as DNA substrate measured every 60 secs for 60 mins by fluorescence based analysis
[4] = system: Oropouche virus; test: Antiviral activity against Oropouche virus infected in Vero cells incubated for 1 hr and measured after 3 days by crystal violet staining based analysis; assay type: functional, organism-based
[5] = as §1
[6] = Inhibition of Oropouche virus N-terminal His-tagged fusion endonuclease expressed in Escherichia coli Rosetta (DE3) cells using FAM-TCT CTA GCA GTG GCG CC-TAM as DNA substrate measured every 60 secs for 60 mins by FRET assay

Oc1cc(O)c2c(O)c3cc4ccccc4cc3nc2c1
CC50 at 72 h [1]: 1530 µM
selectivity ratio [2]: 70.8
inhibition [3]: inactive
EC50 [4]: 21.6 µM

COc1cc2[nH]c3c(OC)c(OC)ccc3c(=O)c2c(OC)c1OC [CUSCULINE]
CC50 at 72 h [1]: 1640 µM
selectivity ratio [2]: 49.6
IC50 [5]: 1.4 µM
EC50 [4]: 33 µM

COc1cc(O)c2c(c1)oc(=O)c1c3cc(O)c(O)cc3oc21 [WEDELOLACTONE]
IC50 [6]: 0.31 µM
CC50 at 72 h [1]: 374 µM
EC50 [4]: 18.9 µM
